Data as given in patent publication US5231089A, “Method of improving oral bioavailability of carbamazepine” (priority 1992, dated 1993).
Like-named read-outs stand apart in the source and are kept apart here.

Assays:
[1] = dog, in vivo
[2] = cited from earlier work; for solubilization in water: 15 mg/mL hydroxypropyl-β-cyclodextrin (Uekama et al)
[3] = with water-soluble β-cyclodextrin epichlorohydrin polymer; cited from earlier work
[4] = in vivo; cited from earlier work
[5] = tested on: generalized tonic-clonic seizures; conditions: human, in vivo; cited from earlier work
[6] = tested on: maximal electroshock seizure (MES) test models; conditions: in vivo; cited from earlier work
[7] = cited from earlier work; for Absolute bioavailability: 100 mg 2% oral suspension vs intravenous infusion (Gerardin et al)
[8] = cited from earlier work
[9] = healthy human subjects (Neuvonen et al)

With NC(=O)N1c2ccccc2C=Cc2ccccc21 [TEGRETOL] the “coefficient of variation around the AUC” value [1] was 78% and the “coefficient of variation of Cmax” value [1] was 71%.
In the case of CC(C(=O)O)c1ccc(-c2ccccc2)c(F)c1 (stereo not shown) [flurbiprofen], the solubilization in water [2] is given as “improved solubilization”.
For C[C@H]1O[C@@H](O[C@H]2[C@@H](O)C[C@H](O[C@H]3[C@@H](O)C[C@H](O[C@H]4CC[C@@]5(C)[C@H](CC[C@@H]6[C@@H]5C[C@@H](O)[C@]5(C)[C@@H](C7=CC(=O)OC7)CC[C@]65O)C4)O[C@@H]3C)O[C@@H]2C)C[C@H](O)[C@@H]1O [digoxin], the solubilization in water [2] is listed as “improved solubilization”.
In the case of O=C1NC(=O)C(c2ccccc2)(c2ccccc2)N1 [phenytoin], the dissolution and absorption [3] is given as “Improvements” and the solubilization in water [2] is given as “improved solubilization”.
In the case of OC[C@H]1O[C@@H]2O[C@H]3[C@H](O)[C@@H](O)[C@@H](O[C@H]4[C@H](O)[C@@H](O)[C@@H](O[C@H]5[C@H](O)[C@@H](O)[C@@H](O[C@H]6[C@H](O)[C@@H](O)[C@@H](O[C@H]7[C@H](O)[C@@H](O)[C@@H](O[C@H]8[C@H](O)[C@@H](O)[C@@H](O[C@H]9[C@H](O)[C@@H](O)[C@@H](O[C@H]1[C@H](O)[C@H]2O)O[C@@H]9CO)O[C@@H]8CO)O[C@@H]7CO)O[C@@H]6CO)O[C@@H]5CO)O[C@@H]4CO)O[C@@H]3CO [γ-cyclodextrin], the “effect on the water solubility of carbamazepine” value ([2]; Brewster et al) is listed as “significantly enhance”.
For OC[C@H]1O[C@@H]2O[C@H]3[C@H](O)[C@@H](O)[C@@H](O[C@H]4[C@H](O)[C@@H](O)[C@@H](O[C@H]5[C@H](O)[C@@H](O)[C@@H](O[C@H]6[C@H](O)[C@@H](O)[C@@H](O[C@H]7[C@H](O)[C@@H](O)[C@@H](O[C@H]8[C@H](O)[C@@H](O)[C@@H](O[C@H]1[C@H](O)[C@H]2O)O[C@@H]8CO)O[C@@H]7CO)O[C@@H]6CO)O[C@@H]5CO)O[C@@H]4CO)O[C@@H]3CO [β-cyclodextrin], the nephrotoxicity [4] is listed as “nephrotoxicity” and the aqueous solubility ([2]; 25° C.) is listed as “about 1.8 % w/v”.
In the case of CC(=O)[C@H]1CC[C@H]2[C@@H]3CCC4=CC(=O)CC[C@]4(C)[C@H]3CC[C@]12C [progesterone], the solubilization in water [2] is listed as “improved solubilization”.
For CCCCCCNC(=O)n1cc(F)c(=O)[nH]c1=O [carmofur], the solubilization in water [2] is listed as “improved solubilization”.
For COc1ccc2c(c1)c(CC(=O)O)c(C)n2C(=O)c1ccc(Cl)cc1 [indomethacin], the solubilization in water [2] is given as “improved solubilization”.
For C[C@]12C=CC(=O)C=C1CC[C@@H]1[C@@H]2[C@@H](O)C[C@@]2(C)[C@H]1CC[C@]2(O)C(=O)CO [prednisolone], the solubilization in water [2] is given as “improved solubilization”.
In the case of C[C@]12CC[C@H]3[C@@H](CCC4=CC(=O)CC[C@@]43C)[C@@H]1CC[C@@H]2O [testosterone], the solubilization in water [2] is given as “improved solubilization”.
In the case of NC(=O)N1c2ccccc2C=Cc2ccccc21 [carbamazepine, 5H-dibenz[b,f]azepine-5-carboxamide], the “efficacy in generalized tonic-clonic seizures (grand mal)” value [5] is given as “proven efficacy”, the “effectiveness in MES test models” value [6] is given as “effective” and the “total bioavailability (area under the curve)” value ([7]; Australian tablets 1977 vs since 1980 (Eadie et al)) is given as “no significant difference in total bioavailability”. For the same compound, the “oral absorption, adequacy” value ([7]; Goodman and Gilman) was “adequate”, the “plasma levels, 200 or 400 mg tablets” value ([7]; epileptic patients (Monaco et al)) was “no difference in plasma levels” and the “absorption, rectal versus oral” value [7, 9] was “significantly slower”. For the same compound, the “total bioavailability, rectal versus oral” value [7, 9] was “similar”, the “bioavailability from the oral suspension versus intravenous” value ([7]; healthy male volunteers (Gerardin et al)) was “equivalent” and the oral absorption ([7]; rate/regularity, in words) was “slow and somewhat erratic”. For the same compound, the Absolute bioavailability ([7]; subject 1) was 102.3%, the Absolute bioavailability ([7]; subject 2) was 100.1% and the “gingival hypertropy, hirsutism, acne” value ([8]; effects associated with phenytoin) was “does not precipitate”. For the same compound, the Therapeutic plasma levels ([8]; human, in vivo) was 4 to 10 µg/mL, the “level at which diplopia, dizziness, drowsiness and ataxia occur” value ([8]; human, in vivo) was “above 6 μg/mL” and the sedation ([8]; human, in vivo) was “less sedating”. The “serum level at which nystagmus may occur” value ([8]; human, in vivo) was “below the therapeutic range” and the “water solubility of carbamazepine” value ([2]; no cyclodextrin) was “extremely poor water solubility”.
